The values below come from article PMC8848768, “Synthesis and evaluation of potent yaku'amide A analogs” (Chemical Science, 2022).

Assay [1] concerns MCF7. The following applies: read-out: Aver IC50, MCF7; MCF7 (Breast Carcinoma); MTS, 72 hours, 37 °C, 5% CO2, 384-well; n>2 independent studies (in duplicate). The protocol: (§1) The antiproliferative activity profiles of 1a, its full-length analogs 2a and 2b, and its partial structures (23, 24, 26, and 30) were determined by in vitro screening in 72 hours MTS cell proliferation assays against a panel of 18 different human cancer cell lines. […] The three peptides were also evaluated for their antiproliferative activity against the lung fibroblast MRC5 cell line.
(§2) Cells (40 µ L) are added into individual wells of a 384-well black/clear bottom plate on day zero at concentrations enabling continuous log growth over the course of the assay. On day one, compounds (or DMSO) are transferred using an ATS-liquid handler (100 nL per well) to individual wells containing cells and the cells are treated for 72 hours (37 °C, 5% CO 2) prior to measuring proliferation using MTS reagent following manufacturer’s instructions. Net OD values are determined by subtracting the average OD values of cells (measured on day 1, T = 0) from average total OD value of cells (measured on day 4, T = 72h). IC 50 values are calculated using proprietary software (IC 50 values normalized against all compounds). Results represent n>2 independent studies (in duplicate).
(§3) Table S1. Antiproliferative Data of Compounds 1a, 2a, 2b, 23, 24, 26, and 30.
(§4) Table S2. Human Cell Line Descriptions.
(§5) Human Cell Line* Description
(§6) *All cells were obtained from ATCC and are authenticated

The subject of assay [2] is A375. Description: cells. Particulars: read-out: Aver IC50, A375; A375 (Malignant Melanoma); MTS, 72 hours, 37 °C, 5% CO2, 384-well; n>2 independent studies (in duplicate). The protocol: as §1, §2, §3, §4, §5, §6
Assay [3] relates to HT29. As to the kind of experiment: cells. Particulars: read-out: Aver IC50, HT29; HT29 (Colon Carcinoma); MTS, 72 hours, 37 °C, 5% CO2, 384-well; n>2 independent studies (in duplicate). How it is done:
as §1, §2, §3, §4, §5, §6

Assay [4] relates to COLO678. As to the kind of experiment: cells. The following applies: read-out: Aver IC50, COLO678; COLO678 (Colon Carcinoma); MTS, 72 hours, 37 °C, 5% CO2, 384-well; n>2 independent studies (in duplicate). How it is done:
as §1, §2, §3, §4, §5, §6

Assay [5] has as its system HL60. Description: cells. The following applies: read-out: Aver IC50, HL60; HL60 (Leukema - Promyelocytic); MTS, 72 hours, 37 °C, 5% CO2, 384-well; n>2 independent studies (in duplicate). The protocol:
as §1, §2, §3, §4, §5, §6

Assay [6] relates to RAMOS. Description: cells. Particulars: read-out: Aver IC50, RAMOS; RAMOS (Burkitt's lymphoma); MTS, 72 hours, 37 °C, 5% CO2, 384-well; n>2 independent studies (in duplicate). How it is done:
as §1, §2, §3, §4, §5, §6

Assay [7] deals with BXPC3. Description: cells. The following applies: read-out: Aver IC50, BXPC3; BXPC3 (Pancreatic - Adenocarcinoma); MTS, 72 hours, 37 °C, 5% CO2, 384-well; n>2 independent studies (in duplicate). The protocol:
as §1, §2, §3, §4, §5, §6

In assay [8] the test system is A549. As to the kind of experiment: cells. The following applies: read-out: Aver IC50, A549; A549 (Lung - NSCLC); MTS, 72 hours, 37 °C, 5% CO2, 384-well; n>2 independent studies (in duplicate). How it is done:
as §1, §2, §3, §4, §5, §6

Assay [9] has as its system JURKAT. As to the kind of experiment: cells. The following applies: read-out: Aver IC50, JURKAT; JURKAT (acute T-cell leukemia); MTS, 72 hours, 37 °C, 5% CO2, 384-well; n>2 independent studies (in duplicate). The protocol: as §1, §2, §3, §4, §5, §6
The test system of assay [10] is PANC1005. As to the kind of experiment: cells. The following applies: read-out: Aver IC50, PANC1005; PANC1005 (Pancreatic - Adenocarcinoma); MTS, 72 hours, 37 °C, 5% CO2, 384-well; n>2 independent studies (in duplicate). The protocol: as §1, §2, §3, §4, §5, §6
Assay [11] has as its system U937. As to the kind of experiment: cells. Particulars: read-out: Aver IC50, U937; U937 (Pro-monocytic, Human Myeloid Leukemia); MTS, 72 hours, 37 °C, 5% CO2, 384-well; n>2 independent studies (in duplicate). How it is done: as §1, §2, §3, §4, §5, §6
The test system of assay [12] is OVCAR3. As to the kind of experiment: cells. Particulars: read-out: Aver IC50, OVCAR3; OVCAR3 (Ovary - Adenocarcinoma); MTS, 72 hours, 37 °C, 5% CO2, 384-well; n>2 independent studies (in duplicate). The protocol: as §1, §2, §3, §4, §5, §6
The subject of assay [13] is MV411. As to the kind of experiment: cells. Particulars: read-out: Aver IC50, MV411; MV411 (Acute Myeloid Leukemia); MTS, 72 hours, 37 °C, 5% CO2, 384-well; n>2 independent studies (in duplicate). The protocol:
as §1, §2, §3, §4, §5, §6

Assay [14] concerns SNUC1. As to the kind of experiment: cells. Particulars: read-out: Aver IC50, SNUC1; SNUC1 (Colon Carcinoma); MTS, 72 hours, 37 °C, 5% CO2, 384-well; n>2 independent studies (in duplicate). The protocol: as §1, §2, §3, §4, §5, §6
Assay [15] concerns NCIH1048. Description: cells. The following applies: read-out: Aver IC50, NCIH1048; NCIH1048 (Lung - SCLC); MTS, 72 hours, 37 °C, 5% CO2, 384-well; n>2 independent studies (in duplicate). How it is done: as §1, §2, §3, §4, §5, §6
Assay [16] concerns CALU6. As to the kind of experiment: cells. Particulars: read-out: Aver IC50, CALU6; CALU6 (Lung - Adenocarcinoma); MTS, 72 hours, 37 °C, 5% CO2, 384-well; n>2 independent studies (in duplicate). The protocol:
as §1, §2, §3, §4, §5, §6

Assay [17] has as its system THP1. Description: cells. The following applies: read-out: Aver IC50, THP1; THP1 (Acute Monocytic Leukemia); MTS, 72 hours, 37 °C, 5% CO2, 384-well; n>2 independent studies (in duplicate). The protocol: as §1, §2, §3, §4, §5, §6
In assay [18] the test system is lung fibroblast MRC5 cell line. As to the kind of experiment: cells. Particulars: read-out: Aver IC50, MRC5; MRC5 (Lung Fibroblast, noncancerous); MTS, 72 hours, 37 °C, 5% CO2, 384-well; n>2 independent studies (in duplicate). How it is done:
as §1, §2, §3, §4, §5, §6

For assay [19], the system named is HCT116. As to the kind of experiment: cells. Particulars: read-out: Aver IC50, HCT116; HCT116 (Colon Carcinoma); MTS, 72 hours, 37 °C, 5% CO2, 384-well; n>2 independent studies (in duplicate). How it is done:
as §1, §2, §3, §4, §5, §6

Assay [20] relates to panel of 18 different human cancer cell lines. Description: 72 h MTS cell proliferation assays, panel of cancer cell lines. Format: cell-based. The following applies: against most of the cell lines, ca. How it is done: as §1, §2, §3, §4, §5, §6

Numbered stars: 1 amine (or outer) side, 2 acyl side, 3 side chain; on linkers, the order of the positions; unused ones are H or OH. Square brackets hold non-standard residues; d marks the D form. Peptide text beside a SMILES is read from it. * marks the point of attachment. Heptanoyl(3-oxo-2,2,4S,6-Me) = CC(C)C[C@H](C)C(=O)C(C)(C)C(=O)*; NH((S)-1-NMe2-3-Me-but-2-yl) = CC(C)[C@@H](CN(C)C)N*; Ile(3R-OH) = CC[C@@](C)(O)[C@H](N)C(=O)O; dVal(3-OH) = CC(C)(O)[C@@H](N)C(=O)O; d(aIle) = CC[C@H](C)[C@@H](N)C(=O)O; Val(3-OH) = CC(C)(O)[C@H](N)C(=O)O; X1 = CCC(CC)=C(N[*:1])C(=O)[*:2]; NHCH2CH2NMe2 = CN(C)CCN*; ΔVal = CC(C)=C(N)C(=O)O

One may read the IC50 as the concentration that inhibits the measured activity by half.

Take `CCC(CC)=C(NC(=O)CNC(=O)C(NC(=O)[C@@H](NC(=O)C(C)(C)C(=O)[C@@H](C)CC(C)C)[C@](C)(O)CC)=C(C)C)C(=O)N[C@@H](C(=O)N[C@@H](C(=O)N[C@@H](C(=O)N[C@H](C(=O)NC(C(=O)N[C@H](C)C(=O)N[C@@H](C(=O)N[C@H](C(=O)NC(C(=O)N[C@H](CN(C)C)C(C)C)=C(C)C)C(C)C)C(C)C)=C(C)C)C(C)(C)O)C(C)(C)O)[C@@H](C)CC)C(C)C` [Compound 2b] ({Heptanoyl(3-oxo-2,2,4S,6-Me)}-[Ile(3R-OH)][ΔVal]G[X1][dV][d(aIle)][dVal(3-OH)][Val(3-OH)][ΔVal][dA][dV]V[ΔVal]-{NH((S)-1-NMe2-3-Me-but-2-yl)}): the IC50 in assay [1] was 13 µM; in assay [2] it was 0.254 µM; in assay [3] it was 5.25 µM; in [4], 6.5 µM; in [5], 0.465 µM; in assay [6], 1.2 µM. Further, the IC50 in assay [7] is 9.31 µM; in [8], 0.249 µM; in assay [9], 13.4 µM; in assay [10], 8.81 µM; in assay [11], 0.947 µM; in [12], 0.185 µM. In addition, the IC50 in assay [13] was found to be 0.0488 µM; in assay [14], 0.0583 µM; in assay [15], 2.37 µM; in assay [16] it was 1 µM; in [17] it was 9.69 µM; in [18], 17.5 µM. Also, the IC50 in assay [19] was found to be 4.26 µM.
For `CCC(CC)=C(NC(=O)CNC(=O)C(NC(=O)[C@@H](NC(=O)C(C)(C)C(=O)[C@@H](C)CC(C)C)[C@](C)(O)CC)=C(C)C)C(=O)N[C@@H](C(=O)NCCN(C)C)C(C)C` [Compound 26], the IC50 in assay [1] was 6.34 µM; in assay [2], above 25 µM; in [3], above 25 µM; in [4], above 25 µM; in assay [5] it was above 25 µM; in assay [6], above 25 µM. For the same molecule, the IC50 in [7], in [8], in [9], in assay [10], in [11] and in assay [12] was above 25 µM each time. In addition, the IC50 in [13], in [14], in [15], in assay [16], in assay [17] and in assay [18] was above 25 µM in each case. In addition, in assay [19], the IC50 is above 25 µM.
Turning to `CCC(CC)=C(NC(=O)[C@@H](NC(=O)C(C)(C)C(=O)[C@@H](C)CC(C)C)[C@](C)(O)CC)C(=O)NCC(=O)NC(C(=O)N[C@@H](C(=O)N[C@@H](C(=O)N[C@@H](C(=O)N[C@H](C(=O)NC(C(=O)N[C@H](C)C(=O)N[C@@H](C(=O)N[C@H](C(=O)NC(C(=O)N[C@H](CN(C)C)C(C)C)=C(C)C)C(C)C)C(C)C)=C(C)C)C(C)(C)O)C(C)(C)O)[C@@H](C)CC)C(C)C)=C(C)C` [Compound 2a] ({Heptanoyl(3-oxo-2,2,4S,6-Me)}-[Ile(3R-OH)][X1]G[ΔVal][dV][d(aIle)][dVal(3-OH)][Val(3-OH)][ΔVal][dA][dV]V[ΔVal]-{NH((S)-1-NMe2-3-Me-but-2-yl)}), the IC50 in [1] turned out to be 13 µM; in assay [2], 1.51 µM; in [3], 2.27 µM; in assay [4], 2.01 µM; in [5], 0.37 µM; in assay [6], 0.362 µM. Also, the IC50 in assay [7] amounted to 3.9 µM; in assay [8] it was 0.0865 µM; in assay [9], 4.21 µM; in assay [10], 1.97 µM; in assay [11], 0.435 µM; in assay [12], 0.0814 µM. The IC50 in [13] came to 0.0208 µM; in [14], 0.0344 µM; in [15] it was 1.31 µM; in assay [16] it was 0.578 µM; in [17] it was 9.19 µM; in assay [18], 5.47 µM. Besides, in [19], the IC50 worked out at 1.13 µM. Moreover, the “Increased potency compared to 2b” value in [20] is 2–4 fold.
With `CCC(CC)=C(NC(=O)CNC(=O)C(NC(=O)[C@@H](NC(=O)C(C)(C)C(=O)[C@@H](C)CC(C)C)[C@](C)(O)CC)=C(C)C)C(=O)N[C@@H](C(=O)N[C@@H](C(=O)N[C@@H](C(=O)N[C@H](C(=O)NC(C(=O)N[C@H](C)C(=O)NCCN(C)C)=C(C)C)C(C)(C)O)C(C)(C)O)[C@@H](C)CC)C(C)C` [Compound 30] ({Heptanoyl(3-oxo-2,2,4S,6-Me)}-[Ile(3R-OH)][ΔVal]G[X1][dV][d(aIle)][dVal(3-OH)][Val(3-OH)][ΔVal][dA]-NHCH2CH2NMe2), the IC50 in assay [1] is 12.6 µM; in [2], 24.7 µM; in [3], above 25 µM; in [4] it was above 25 µM; in [5], 20 µM; in [6], 24.3 µM. Further, the IC50 was above 25 µM in assay [7]; 20.6 µM in assay [8]; 22.8 µM in assay [9]; above 25 µM in [10]; above 25 µM in [11]; 12.6 µM in [12]. For the same molecule, the IC50 was 2.7 µM in [13]; 20.6 µM in [14]; above 25 µM in assay [15]; above 25 µM in assay [16]; above 25 µM in assay [17]; above 25 µM in assay [18]. The IC50 in [19] is above 25 µM.
